The values that follow come from US8088801B2, “Aryloazol-2-yl cyanoethylamino compounds, method of making and method of using thereof” (Merial Limited, priority 2007, dated 2012).

The subject of the test is Haemonchus contortus. Put plainly: Method A: screening against Haemonchus contortus, L1 larvae in microtitre plate. To be noted: 96 h, 4 days assessment, read-out: motility inhibition; for inhibition at 0.15 ppm: test concentration 0.15 ppm; for inhibition at 0.04 ppm: test concentration 0.04 ppm; for inhibition at 0.0025 ppm: test concentration 0.0025 ppm; for inhibition at 0.01 ppm: test concentration 0.01 ppm. From the text:
Method A: Screening Method to Test Activity of Compounds Against Haemonchus contortus.

As for `CC(C#N)(Cn1nc2ccc(Cl)cc2n1)NC(=O)c1ccc(C(F)(F)F)cc1` (stereo not drawn) [Compound 1.002, N-[2-(5-Chloro-2H-benzotriazol-2-yl)-1-cyano-1-methylethyl]-4-trifluoromethylbenzamide], the inhibition at 0.15 ppm is at least 90%.

With `Cc1ccc2nn(CC(C)(C#N)NC(=O)c3ccc(OC(F)(F)F)cc3)nc2c1` (stereo not drawn) [Compound 1.006, N-[1-Cyano-1-methyl-2-(5-methyl-2H-benzotriazol-2-yl)ethyl]-4-trifluoromethoxybenzamide], the inhibition at 0.15 ppm is at least 90%.

Turning to `CC(C#N)(Cn1nc2cc(Cl)c(Cl)cc2n1)NC(=O)c1ccc(OC(F)(F)F)cc1` (stereo not drawn) [Compound 1.010, N-[1-Cyano-2-(5,6-dichloro-2H-benzotriazol-2-yl)-1-methylethyl]-4-trifluoromethoxybenzamide], the inhibition at 0.15 ppm was at least 90%.

For the compound `CC(C#N)(Cn1nc2cc(C(F)(F)F)cc(C(F)(F)F)c2n1)NC(=O)c1ccc(OC(F)(F)F)cc1` (stereo not drawn) [Compound 1.018, N-[2-(4,6-Bis(trifluoromethyl)-2H-benzotriazol-2-yl)-1-cyano-1-methylethyl]-4-trifluoromethoxybenzamide], the inhibition at 0.15 ppm was at least 90%.

As to `CC(C#N)(Cn1nc2cc(Cl)cc(Cl)c2n1)NC(=O)c1ccc(S(=O)(=O)C(F)(F)F)cc1` (stereo not drawn) [Compound 1.025, N-[1-Cyano-2-(4,6-dichloro-2H-benzotriazol-2-yl)-1-methylethyl]-4-trifluoromethylsulfonylbenzamide], the inhibition at 0.15 ppm was at least 90%.

`CC(C#N)(Cn1nc2ccc(Cl)cc2n1)NC(=O)c1ccc(S(=O)(=O)C(F)(F)F)cc1` (stereo not drawn) [Compound 1.031, N-[2-(5-Chloro-2H-benzotriazol-2-yl)-1-cyano-1-methylethyl]-4-trifluoromethylsulfonylbenzamide]: the inhibition at 0.15 ppm is at least 90%.

In the case of `CC(C#N)(Cn1nc2ccc(Cl)cc2n1)NC(=O)c1ccc(Oc2ccccc2)cc1` (stereo not drawn) [Compound 1.032, N-[2-(5-Chloro-2H-benzotriazol-2-yl)-1-cyano-1-methylethyl]-4-phenoxybenzamide], the inhibition at 0.04 ppm is at least 90%.

In the case of `CC(C#N)(Cn1nc2cccc(Cl)c2n1)NC(=O)c1ccc(Oc2ccccc2)cc1` (stereo not drawn) [Compound 1.045, N-[2-(4-Chloro-2H-benzotriazol-2-yl)-1-cyano-1-methylethyl]-4-phenoxybenzamide], the inhibition at 0.15 ppm is at least 90%.

As for `CC(C#N)(Cn1nc2cc(C(F)(F)F)cc(C#N)c2n1)NC(=O)c1ccc(OC(F)(F)F)cc1` (stereo not drawn) [Compound 1.054, N-[1-Cyano-2-(4-cyano-6-trifluoromethyl-2H-benzotriazol-2-yl)-1-methylethyl]-4-trifluoromethoxybenzamide], the inhibition at 0.15 ppm was at least 90%.

As for `CC(C#N)(Cn1nc2ccc(Cl)c(Br)c2n1)NC(=O)c1ccc(OC(F)(F)F)cc1` (stereo not drawn) [Compound 1.057, N-[2-(4-Bromo-5-chloro-2H-benzotriazol-2-yl)-1-cyano-1-methylethyl]-4-trifluoromethoxybenzamide], the inhibition at 0.04 ppm is at least 90%.

For the compound `CC(C#N)(Cn1nc2cc(Cl)cc(Br)c2n1)NC(=O)c1ccc(OC(F)(F)F)cc1` (stereo not drawn) [Compound 1.060, N-[2-(4-Bromo-6-chloro-2H-benzotriazol-2-yl)-1-cyano-1-methylethyl]-4-trifluoromethoxybenzamide], the inhibition at 0.04 ppm was at least 90%.

With `CSCC(C#N)(Cn1nc2ccc(Cl)cc2n1)NC(=O)c1ccc(OC(F)(F)F)cc1` (stereo not drawn) [Compound 1.061, N-[2-(5-Chloro-2H-benzotriazol-2-yl)-1-cyano-1-(methylthiomethyl)ethyl]-4-trifluoromethoxybenzamide], the inhibition at 0.15 ppm is at least 90%.

As to `CC(C#N)(Cn1nc2cc(Cl)cc(C#N)c2n1)NC(=O)c1ccc(OC(F)(F)F)cc1` (stereo not drawn) [Compound 1.067, N-[2-(6-Chloro-4-cyano-2H-benzotriazol-2-yl)-1-cyano-1-methylethyl]-4-trifluoromethoxybenzamide], the inhibition at 0.04 ppm was at least 90%.

Turning to `C=Cc1cc(Cl)cc2nn(CC(C)(C#N)NC(=O)c3ccc(OC(F)(F)F)cc3)nc12` (stereo not drawn) [Compound 1.075, N-[2-(6-Chloro-4-vinyl-2H-benzotriazol-2-yl)-1-cyano-1-methylethyl]-4-trifluoromethoxybenzamide], the inhibition at 0.04 ppm is at least 90%.

On to `CC(C#N)(Cn1nc2cc(Cl)cc(C(F)CF)c2n1)NC(=O)c1ccc(OC(F)(F)F)cc1` (stereo not drawn) [Compound 1.078, N-{2-[6-Chloro-4-(1,2-difluoroethyl)-2H-benzotriazol-2-yl]-1-cyano-1-methyl-ethyl}-4-trifluoromethoxybenzamide], for which the inhibition at 0.04 ppm was at least 90%.

`CC(C#N)(Cn1nc2cc(Cl)cc(C=O)c2n1)NC(=O)c1ccc(OC(F)(F)F)cc1` (stereo not drawn) [Compound 1.079, N-[2-(6-Chloro-4-formyl-2H-benzotriazol-2-yl)-1-cyano-1-methylethyl]-4-trifluoromethoxybenzamide]: the inhibition at 0.15 ppm was at least 90%.

As for `CC(C#N)(Cn1nc2cc(Cl)cc(CO)c2n1)NC(=O)c1ccc(OC(F)(F)F)cc1` (stereo not drawn) [Compound 1.081, N-[2-(6-Chloro-4-hydroxymethyl-2H-benzotriazol-2-yl)-1-cyano-1-methylethyl]-4-trifluoromethoxybenzamide], the inhibition at 0.15 ppm is at least 90%.

`CC(C#N)(Cn1nc2c(Br)cc(Cl)c(Br)c2n1)NC(=O)c1ccc(OC(F)(F)F)cc1` (stereo not drawn) [Compound 1.083, N-[2-(5-Chloro-4,7-dibromo-2H-benzotriazol-2-yl)-1-cyano-1-methylethyl]-4-trifluoromethoxybenzamide]: the inhibition at 0.0025 ppm was at least 90%.

In the case of `COC(=O)c1cc(Cl)cc2nn(CC(C)(C#N)NC(=O)c3ccc(OC(F)(F)F)cc3)nc12` (stereo not drawn) [Compound 1.084, Methyl 6-chloro-2-[2-cyano-2-({[4-(trifluoromethoxy)phenyl]carbonyl}-amino)propyl]-2H-benzotriazole-4-carboxylate], the inhibition at 0.15 ppm was at least 90%.

Turning to `CC(C#N)(Cn1nc2c(Cl)c(Br)c(Cl)c(Br)c2n1)NC(=O)c1ccc(OC(F)(F)F)cc1` (stereo not drawn) [Compound 1.088, N-[1-Cyano-2-(4,6-dibromo-5,7-dichloro-2H-benzotriazol-2-yl)-1-methylethyl]-4-trifluoromethoxybenzamide], the inhibition at 0.0025 ppm was at least 90%.

For the compound `Cc1cc(Cl)c(C)c2nn(CC(C)(C#N)NC(=O)c3ccc(OC(F)(F)F)cc3)nc12` (stereo not drawn) [Compound 1.092, N-[2-(5-Chloro-4,7-dimethyl-2H-benzotriazol-2-yl)-1-cyano-1-methylethyl]-4-trifluoromethoxybenzamide], the inhibition at 0.01 ppm was at least 90%.

For `CC(C#N)(Cn1cc2cc(Cl)cc(Cl)c2n1)NC(=O)c1ccc(Oc2ccccc2)cc1` (stereo not drawn) [Compound 2.004, N-[1-Cyano-2-(5,7-dichloro-2H-indazol-2-yl)-1-methylethyl]-4-phenoxybenzamide], the inhibition at 0.15 ppm is at least 90%.

With `Cc1cc(Cl)cc2cn(CC(C)(C#N)NC(=O)c3ccc(OC(F)(F)F)cc3)nc12` (stereo not drawn) [Compound 2.006, N-[2-(5-Chloro-7-methyl-2H-indazol-2-yl)-1-cyano-1-methylethyl]-4-trifluoromethoxybenzamide], the inhibition at 0.04 ppm was at least 90%.

Take `Cc1c2cc(Cl)cc(Cl)c2nn1CC(C)(C#N)NC(=O)c1ccc(OC(F)(F)F)cc1` (stereo not drawn) [Compound 2.010, N-[1-Cyano-2-(5,7-dichloro-3-methyl-2H-indazol-2-yl)-1-methylethyl]-4-trifluoromethoxybenzamide]: the inhibition at 0.15 ppm was at least 90%.

In the case of `CCOc1c2cc(Cl)ccc2nn1CC(C)(C#N)NC(=O)c1ccc(OC(F)(F)F)cc1` (stereo not drawn) [Compound 2.014, N-[2-(5-Chloro-3-ethoxy-2H-indazol-2-yl)-1-cyano-1-methylethyl]-4-trifluoromethoxybenzamide], the inhibition at 0.01 ppm is at least 90%.

As to `COc1c2c(Cl)cc(Cl)cc2nn1CC(C)(C#N)NC(=O)c1ccc(OC(F)(F)F)cc1` (stereo not drawn) [Compound 2.021, N-[1-Cyano-2-(4,6-dichloro-3-methoxy-2H-indazol-2-yl)-1-methylethyl]-4-trifluoromethoxybenzamide], the inhibition at 0.04 ppm was at least 90%.

Take `COc1c2ccc(Br)cc2nn1CC(C)(C#N)NC(=O)c1ccc(OC(F)(F)F)cc1` (stereo not drawn) [Compound 2.023, N-[2-(6-Bromo-3-methoxy-2H-indazol-2-yl)-1-cyano-1-methylethyl]-4-trifluoromethoxybenzamide]: the inhibition at 0.0025 ppm is at least 90%.

Take `COc1c2ccc(C(F)(F)F)cc2nn1CC(C)(C#N)NC(=O)c1ccc(OC(F)(F)F)cc1` (stereo not drawn) [Compound 2.025, N-[1-Cyano-2-(3-methoxy-6-trifluoromethyl-2H-indazol-2-yl)-1-methylethyl]-4-trifluoromethoxybenzamide]: the inhibition at 0.0025 ppm was at least 90%.

Regarding `CCOc1c2ccc(Cl)cc2nn1CC(C)(C#N)NC(=O)c1ccc(OC(F)(F)F)cc1` (stereo not drawn) [Compound 2.027, N-[2-(6-Chloro-3-ethoxy-2H-indazol-2-yl)-1-cyano-1-methylethyl]-4-trifluoromethoxybenzamide], the inhibition at 0.01 ppm is at least 90%.

In the case of `COc1c2ccc([N+](=O)[O-])cc2nn1CC(C)(C#N)NC(=O)c1ccc(OC(F)(F)F)cc1` (stereo not drawn) [Compound 2.033, N-[1-Cyano-2-(3-methoxy-6-nitro-2H-indazol-2-yl)-1-methylethyl]-4-trifluoromethoxybenzamide], the inhibition at 0.15 ppm is at least 90%.

Turning to `CC(C#N)(Cn1nc2c(Cl)c(Cl)ccc2c1Cl)NC(=O)c1ccc(OC(F)(F)F)cc1` (stereo not drawn) [Compound 2.039, N-[1-Cyano-1-methyl-2-(3,6,7-trichloro-2H-indazol-2-yl)ethyl]-4-trifluoromethoxybenzamide], the inhibition at 0.01 ppm is at least 90%.

Regarding `CC(C#N)(Cn1nc2cc(Cl)ccc2c1Br)NC(=O)c1ccc(OC(F)(F)F)cc1` (stereo not drawn) [Compound 2.042, N-[2-(3-Bromo-6-chloro-2H-indazol-2-yl)-1-cyano-1-methylethyl]-4-trifluoromethoxybenzamide], the inhibition at 0.0025 ppm is at least 90%.

As to `CC(C#N)(Cn1nc2cc(Cl)ccc2c1Cl)NC(=O)c1ccc(OC(F)(F)F)cc1` (stereo not drawn) [Compound 2.044, N-[1-Cyano-2-(3,6-dichloro-2H-indazol-2-yl)-1-methylethyl]-4-trifluoromethoxybenzamide], the inhibition at 0.0025 ppm is at least 90%.
